What was measured:
CCR-5 [1] = biological target: T1, CCR-5 (Homo sapiens, UniProt P51681); experiment: CCR-5 calcium mobilization, HT1080/CCR-5 cells; format: cell-based; conditions: MIP-1β 50 nM, read-out: CCR-5 ^2+ Flux IC50
T1 construct: human peripheral T cells was used as a source of CCR-5; endogenous in cells; host or cells: human peripheral T cells from donors pre-screened for high CCR-5 expression

CCR-5 [2] = biological target: T1, CCR-5; experiment: CCR-5 GTP-γS exchange, CCR-5/HT1080 membranes; format: biochemical; conditions: MIP-1α/LD78β ligand
From the text: A similar procedure to the CCR-2 GTP-γS exchange procedure set forth above was adopted except that MIP-1α/LD78β was the ligand and the cell line was CCR-5/HT1080. MIP-1α/LD78β was used as the CCR-5 ligand because it provided a bigger signal to noise ratio than MIP-1β.

CCR-5 [3] = biological target: T1, CCR-5; experiment: T cell CCR-5 binding assay, 125I-MIP-1β tracer; conditions: human peripheral T cells
From the text: The procedure used for T cell CCR-5 binding assay was similar to those for hPBMC CCR-2 binding assay except that human peripheral T cells was used as a source of CCR-5 (see below) and ^125I-MIP-1β as a tracer (Amersham).
(§1) Therefore, blood donors were pre-screened for high T-cell expression of CCR-5. hPBMCs were first isolated from human whole blood by standard protocol with Ficoll-Hypaque. Flow cytometric analysis was then used to measure CCR-5 expression on T cells following staining with anti-CCR-5 antibody plus anti-CD4 antibody or anti-CD8 antibody. Those blood donors in which >5% peripheral T cells (CD4^+ and CD8^+) express CCR-5 were requested to provide blood again for isolation of PBMCs and, subsequently, of T cells using a standard E-rosetting technique which relies on the unique ability of T cells to bind to sheep red blood cells (RBCs).

hERG = biological target: T2, hERG (Homo sapiens, UniProt Q12809); experiment: hERG patch clamp; format: cell-based; conditions: read-out: hERG patch clamp (% Inhib.)
T2 construct: expressed in transfected cells; host or cells: HEK293
T2 sequence (Q12809 whole entry): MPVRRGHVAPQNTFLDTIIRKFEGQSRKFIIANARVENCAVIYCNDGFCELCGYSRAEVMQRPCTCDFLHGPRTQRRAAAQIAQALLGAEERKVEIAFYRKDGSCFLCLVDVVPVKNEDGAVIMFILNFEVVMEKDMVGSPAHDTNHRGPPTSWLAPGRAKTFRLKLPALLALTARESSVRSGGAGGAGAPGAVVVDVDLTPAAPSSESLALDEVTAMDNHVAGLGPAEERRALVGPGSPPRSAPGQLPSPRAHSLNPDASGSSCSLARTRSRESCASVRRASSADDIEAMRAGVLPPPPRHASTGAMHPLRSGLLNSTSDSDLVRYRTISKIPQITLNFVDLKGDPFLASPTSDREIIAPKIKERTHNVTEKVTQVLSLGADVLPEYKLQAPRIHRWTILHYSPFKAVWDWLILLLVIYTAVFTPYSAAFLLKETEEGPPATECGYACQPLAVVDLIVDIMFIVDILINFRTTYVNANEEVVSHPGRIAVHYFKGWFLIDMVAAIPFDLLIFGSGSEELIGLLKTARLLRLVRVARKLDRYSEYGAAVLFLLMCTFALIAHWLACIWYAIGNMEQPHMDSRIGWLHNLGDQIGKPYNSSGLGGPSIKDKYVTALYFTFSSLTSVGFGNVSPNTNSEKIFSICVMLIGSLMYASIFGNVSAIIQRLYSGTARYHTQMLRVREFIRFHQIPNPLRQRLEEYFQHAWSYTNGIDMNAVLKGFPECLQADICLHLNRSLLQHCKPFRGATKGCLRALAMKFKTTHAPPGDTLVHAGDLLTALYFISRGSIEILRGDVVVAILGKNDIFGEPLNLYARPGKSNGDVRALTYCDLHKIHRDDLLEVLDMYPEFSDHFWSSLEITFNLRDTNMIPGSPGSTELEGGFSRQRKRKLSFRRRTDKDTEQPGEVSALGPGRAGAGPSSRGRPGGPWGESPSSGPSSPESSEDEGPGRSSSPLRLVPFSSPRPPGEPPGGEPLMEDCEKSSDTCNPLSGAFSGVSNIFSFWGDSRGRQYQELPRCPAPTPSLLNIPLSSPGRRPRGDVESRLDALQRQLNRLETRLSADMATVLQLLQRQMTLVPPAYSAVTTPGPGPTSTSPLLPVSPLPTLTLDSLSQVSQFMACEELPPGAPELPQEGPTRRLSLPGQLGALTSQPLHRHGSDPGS
Protocol: Whole-cell patch-clamp was used to directly measure hERG currents in HEK-293 cells stably expressing the cloned hERG potassium channel α subunit. […] Repetitive test pulses (0.05 Hz) were applied from a holding potential of −80 mV to +20 mV for 2 seconds and tail currents were elicited following the test pulses by stepping the voltage to −65 mV. The effects from the compound were calculated by measuring inhibition of peak tail current

[4] = Single-dose pharmacokinetics in rats; conditions: male, Sprague-Dawley, rat
Protocol: Male Sprague-Dawley rats (250-300 g) were used for the pharmacokinetic studies. Rats were fasted overnight prior to PO dosing and fed 4 h post dose. Blood samples (˜0.3 mL) were collected from the jugular vein into K2EDTA-containing tubes and then centrifuged at 4° C. (1500-2000×g) to obtain plasma. […] Serial blood samples were obtained at 0.17 (for IV only), 0.25, 0.5, 0.75, 1, 2, 4, 6, 8, and 24 h post dose. Plasma samples, obtained by centrifugation at 4° C. (1500-2000×g), were stored at −20° C. until analysis by LC/MS/MS.
The pharmacokinetic parameters were obtained by non-compartmental analysis of plasma concentration vs. time data (Kinetica software, Version 4.2, InnaPhase Corporation, Philadelphia, Pa.). The peak concentration (Cmax) and time for Cmax were recorded directly from experimental observations. The area under the curve from time zero to the last sampling time (AUC(0-T)) was calculated using a combination of linear and log trapezoidal summations. The total plasma clearance (CLTp), steady-state volume of distribution (Vss), apparent elimination half-life (T½) and mean residence time (MRT) were estimated after IV administration. Estimations of T½ was made using a minimum of 3 time points with quantifiable concentrations. The absolute oral bioavailability (F) was estimated as the ratio of dose-normalized AUC values following oral and IV doses.

CCR-5 [5] = biological target: T1, CCR-5; experiment: CCR-5 chemotaxis, MIP-1β-induced, peripheral T cells; format: cell-based
From the text: as §1
A similar procedure to that set forth above was adopted except that isolated peripheral T cells was used as CCR-5-expressing cells and MIP-1β (50 nM, PeproTech Inc.) was the ligand.

human CCR-2 = biological target: T3, human CCR-2 (Homo sapiens, UniProt P41597); experiment: CCR-2 chemotaxis, MCP-1-induced, THP-1 cells; format: cell-based
T3 sequence (P41597 1-360 isoform P41597-2): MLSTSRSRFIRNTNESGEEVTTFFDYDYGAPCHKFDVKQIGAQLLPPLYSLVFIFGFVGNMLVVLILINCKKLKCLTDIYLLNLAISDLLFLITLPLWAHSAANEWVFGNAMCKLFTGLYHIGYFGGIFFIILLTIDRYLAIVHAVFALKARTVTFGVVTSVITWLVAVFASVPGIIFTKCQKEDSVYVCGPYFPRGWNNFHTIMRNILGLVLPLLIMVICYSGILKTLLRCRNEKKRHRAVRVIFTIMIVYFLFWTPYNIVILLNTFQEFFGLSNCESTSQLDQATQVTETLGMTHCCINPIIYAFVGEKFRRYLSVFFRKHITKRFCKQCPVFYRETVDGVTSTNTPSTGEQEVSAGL
Protocol: The human CCR-2 chemotaxis assay was conducted with the human monocytic cell line, THP-1. THP-1 cells were first labeled with the fluorescent dye Calcein-AM in phenol red-free, BSA-free RPMI-1640 (pH 7.4) at 37° C. for 30 minutes with gentle mixing every 15 minutes. The labeled cells were then washed and re-suspended at 1×10^5/ml in chemotaxis buffer (phenol red-free RPMI-1640, 0.1% BSA, pH 7.4). The test compound was diluted in chemotaxis buffer such that the final assay concentration ranged from 0.01 nM to 1 μM. The ligand MCP-1 (PeproTech Inc.) was diluted to 20 nM in chemotaxis buffer. To perform the assay, an equal volume of test compound dilutions was mixed with an equal volume of labeled THP-1 cells (Mixture 1), and an equal volume of test compound dilutions was mixed with an equal volume of diluted MCP-1 ligand (Mixture 2). Both mixtures were incubated independently at 37° C. for 10 minutes followed by gentle mixing. MCP-1-induced chemotaxis was then measured in a chemotaxis plate (Becton Dickinson) by placing 50 μl of Mixture 1 in the top chamber and 225 μl of Mixture 2 in the bottom chamber. The plate was covered with a lid and incubated at 37° C. for 30 minutes. 30 minutes later, the plate was read on a CYTOFLUOR®. All conditions were tested in duplicate. […]

CCR-2 = CCR-2 (Homo sapiens, UniProt P41597); experiment: In vivo receptor occupancy in blood of hCCR-2 KI mice (Gaddum equation); conditions: for % Example 1 bound CCR-2 / % free CCR-2 / % mouse MCP-1 bound CCR-2: 48 h
Chain of CCR-2 (P41597 whole entry): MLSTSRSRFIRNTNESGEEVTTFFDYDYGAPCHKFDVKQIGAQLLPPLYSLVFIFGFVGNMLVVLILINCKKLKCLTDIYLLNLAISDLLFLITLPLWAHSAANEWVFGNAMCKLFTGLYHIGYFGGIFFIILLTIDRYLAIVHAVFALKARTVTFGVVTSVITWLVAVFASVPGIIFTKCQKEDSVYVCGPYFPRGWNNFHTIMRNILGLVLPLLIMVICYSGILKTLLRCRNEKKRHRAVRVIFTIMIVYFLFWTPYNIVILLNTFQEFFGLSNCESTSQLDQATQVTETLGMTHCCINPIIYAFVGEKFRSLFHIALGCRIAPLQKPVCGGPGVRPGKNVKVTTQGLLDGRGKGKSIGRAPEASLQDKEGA
From the text: The caveat for this estimation is that only CCR-2 and its major ligand MCP-1 were taken into consideration. The receptor occupancy of a ligand in the presence of a competitive inhibitor is defined by the Gaddum equation: […]
Since Example 1 is a competitive inhibitor of MCP-1 binding to CCR-2, the amounts of both mouse MCP-1/CCR-2 receptor complex and Example 1/CCR-2 receptor complex can be determined using the serum levels of both mouse MCP-1 and protein-unbound Example 1 in plasma. […] The fraction of mouse MCP-1/CCR-2 receptor complexes is determined using the form of the equation described above. To determine the fraction of Example 1/CCR-2 complexes the equation is re-defined as:
[formula] Finally, the amount of CCR-2 free is determined from: [CCR-2]total=[CCR-2]free+[mouse MCP-1/CCR-2]+[Example 1/CCR-2]

[6] = 200 mg/kg (different study), oral BID

T1 sequence (P51681 whole entry): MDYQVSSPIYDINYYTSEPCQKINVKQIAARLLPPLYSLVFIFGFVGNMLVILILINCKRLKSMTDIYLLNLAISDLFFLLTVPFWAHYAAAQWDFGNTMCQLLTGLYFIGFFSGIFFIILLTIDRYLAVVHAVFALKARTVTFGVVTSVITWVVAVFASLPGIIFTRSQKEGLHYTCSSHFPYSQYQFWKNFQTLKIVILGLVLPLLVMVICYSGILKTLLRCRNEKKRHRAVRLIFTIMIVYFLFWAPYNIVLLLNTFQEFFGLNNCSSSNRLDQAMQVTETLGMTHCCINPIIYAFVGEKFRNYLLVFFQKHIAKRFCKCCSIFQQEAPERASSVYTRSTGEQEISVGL

CC(=O)N[C@@H]1C[C@H](NC(C)(C)C)CC[C@@H]1N1CC[C@H](Nc2ncnc3cc(C(C)(C)C)nn23)C1=O [Example 1, N-((1R,2 S,5R)-5-(tert-Butylamino)-2-((S)-3-(7-tert-butylpyrazolo[1,5-a][1,3,5]triazin-4-ylamino)-2-oxopyrrolidin-1-yl)cyclohexyl)acetamide]
IC50 (CCR-5 [1]): 2 ± 1.4 nM
IC50 (CCR-5 [2]): 6.1 ± 1.2 nM
IC50 (CCR-5 [3]): 3.6 ± 1.8 nM
inhibition at 10000 nM (hERG; pH 7.4, 10,000 nM): 1.2%
inhibition at 30000 nM (hERG; pH 7.4, 30,000 nM): 9.2%
clearance ([4]; in vivo, 2 mg/kg): 49.7 mL/min/kg
bioavailability ([4]; in vivo, 10 mg/kg): 94%
AUC ([4]; plasma, oral, 10 mg/kg): 6.5 µM·h
IC50 (CCR-5 [5]): 1.1 ± 0.6 nM
IC50 (human CCR-2): 0.8 ± 0.8 nM
% Example 1 bound CCR-2 (CCR-2; 10 mg/kg oral BID): 48.15%
% free CCR-2 (CCR-2; 10 mg/kg oral BID): 50.68%
% mouse MCP-1 bound CCR-2 (CCR-2; 10 mg/kg oral BID): 1.17%
% Example 1 bound CCR-2 (CCR-2; 50 mg/kg oral BID): 88.74%
% free CCR-2 (CCR-2; 50 mg/kg oral BID): 10.69%
% mouse MCP-1 bound CCR-2 (CCR-2; 50 mg/kg oral BID): 0.56%
% Example 1 bound CCR-2 (CCR-2; 160 mg/kg oral BID): 96.72%
% free CCR-2 (CCR-2; 160 mg/kg oral BID): 3.12%
% mouse MCP-1 bound CCR-2 (CCR-2; 160 mg/kg oral BID): 0.16%
% Example 1 bound CCR-2 (CCR-2; [6]): 98.45%
% free CCR-2 (CCR-2; [6]): 1.44%
% mouse MCP-1 bound CCR-2 (CCR-2; [6]): 0.11%
CCR-2 occupancy at maximal inhibition of monocyte/macrophage infiltration (CCR-2; hCCR-2 KI mouse TG peritonitis): 98.5%

Reference: patent publication US8618101B2, “N-((1R,2S,5R)-5-(tert-butylamino)-2-((S)-3-(7-tert-butylpyrazolo[1,5-a][1,3,5]triazin-4-ylamino)-2-oxopyrrolidin-1-yl)cyclohexyl)acetamide, a dual modulator of chemokine receptor activity, crystalline forms and processes” (Bristol-Myers Squibb Company, priority 2009, dated 2013)
